Test results published in ChEMBL document CHEMBL1201862, “PubChem BioAssay data set” (2004).
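48-hour exposure; five concentrations; linearly interpolated endpoints. The concentration for 50% growth inhibition is given as GI50.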 Activity calls are given as the source filed them. Rule as the data show it: active = GI50 up to about 1.1 µM and inactive = higher.

What was measured:
Test in all cases: NCI-60 cell line screen, 48 h
786-0 = system: 786-0
A549 = system: A549
ACHN = system: ACHN
CAKI-1 = system: CAKI-1
CCRF-CEM = system: CCRF-CEM
COLO 205 = system: COLO 205
DLD-1 = system: DLD-1
DMS-114 = system: DMS-114
DMS-273 = system: DMS-273
HCC 2998 = system: HCC 2998
HCT-116 = system: HCT-116
HL-60 = system: HL-60
HOP-18 = system: HOP-18
HOP-62 = system: HOP-62
HOP-92 = system: HOP-92
HT-29 = system: HT-29
IGROV-1 = system: IGROV-1
K562 = system: K562
KM12 = system: KM12
LOX IMVI = system: LOX IMVI
LXFL 529 = system: LXFL 529
M14 = system: M14
MOLT-4 = system: MOLT-4
Malme-3M = system: Malme-3M
NCI-H23 = system: NCI-H23
NCI-H460 = system: NCI-H460
NCI-H522 = system: NCI-H522
OVCAR-3 = system: OVCAR-3
OVCAR-4 = system: OVCAR-4
OVCAR-5 = system: OVCAR-5
OVCAR-8 = system: OVCAR-8
RXF 393 = system: RXF 393
RXF 631 = system: RXF 631
SF-268 = system: SF-268
SF-295 = system: SF-295
SF-539 = system: SF-539
SK-MEL-28 = system: SK-MEL-28
SK-MEL-5 = system: SK-MEL-5
SN12C = system: SN12C
SNB-19 = system: SNB-19
SNB-75 = system: SNB-75
SNB-78 = system: SNB-78
SR = system: SR
SW-620 = system: SW-620
TK-10 = system: TK-10
U-251 = system: U-251
UACC-257 = system: UACC-257
UACC-62 = system: UACC-62
UO-31 = system: UO-31
XF498 = system: XF498
EKVX = system: EKVX
HCT-15 = system: HCT-15
KM-20L2 = system: KM-20L2
M19-MEL = system: M19-MEL
RPMI-8226 = system: RPMI-8226
SK-MEL-2 = system: SK-MEL-2
SK-OV-3 = system: SK-OV-3
A498 = system: A498
NCI-H226 = system: NCI-H226

Measured: GI50

Cc1ccc(S(=O)(=O)C(CC(=O)N2CCCC2)C(=O)c2ccccc2)cc1 (stereo unspecified)
inactive: 786-0 > 100 µM | A549 > 100 µM | ACHN > 100 µM | CAKI-1 46.9 µM | CCRF-CEM 24.6 µM | COLO 205 > 100 µM | DLD-1 71.1 µM | DMS-114 > 100 µM | DMS-273 97.1 µM | HCC 2998 > 100 µM | HCT-116 55.6 µM | HL-60 19.5 µM | HOP-18 > 100 µM | HOP-62 > 100 µM | HOP-92 > 100 µM | HT-29 > 100 µM | IGROV-1 > 100 µM | K562 24.9 µM | KM12 > 100 µM | LOX IMVI 44.5 µM | LXFL 529 38.5 µM | M14 > 100 µM | MOLT-4 25.6 µM | Malme-3M > 100 µM | NCI-H23 > 100 µM | NCI-H460 > 100 µM | NCI-H522 89.3 µM | OVCAR-3 > 100 µM | OVCAR-4 > 100 µM | OVCAR-5 > 100 µM | OVCAR-8 > 100 µM | RXF 393 > 100 µM | RXF 631 > 100 µM | SF-268 83.4 µM | SF-295 > 100 µM | SF-539 > 100 µM | SK-MEL-28 > 100 µM | SK-MEL-5 > 100 µM | SN12C > 100 µM | SNB-19 > 100 µM | SNB-75 80.2 µM | SNB-78 54.6 µM | SR 25.5 µM | SW-620 37.7 µM | TK-10 > 100 µM | U-251 > 100 µM | UACC-257 > 100 µM | UACC-62 > 100 µM | UO-31 > 100 µM | XF498 > 100 µM

CCOC(=O)C1C(=S)NC(=O)C1C#N (stereo unspecified)
inactive: 786-0 > 100 µM | A549 > 100 µM | ACHN > 100 µM | CAKI-1 > 100 µM | CCRF-CEM > 100 µM | COLO 205 > 100 µM | DLD-1 > 100 µM | DMS-114 > 100 µM | DMS-273 > 100 µM | EKVX > 100 µM | HCC 2998 > 100 µM | HL-60 > 100 µM | HOP-18 > 100 µM | HOP-62 > 100 µM | HOP-92 > 100 µM | HT-29 > 100 µM | IGROV-1 > 100 µM | K562 > 100 µM | KM-20L2 > 100 µM | KM12 > 100 µM | LOX IMVI > 100 µM | LXFL 529 > 100 µM | M14 > 100 µM | M19-MEL > 100 µM | MOLT-4 > 100 µM | Malme-3M > 100 µM | NCI-H23 > 100 µM | NCI-H460 > 100 µM | NCI-H522 > 100 µM | OVCAR-3 > 100 µM | OVCAR-4 > 100 µM | OVCAR-5 > 100 µM | OVCAR-8 > 100 µM | RPMI-8226 > 100 µM | RXF 393 > 100 µM | RXF 631 > 100 µM | SF-268 > 100 µM | SF-295 > 100 µM | SF-539 > 100 µM | SK-MEL-28 > 100 µM | SK-MEL-2 > 100 µM | SK-MEL-5 > 100 µM | SK-OV-3 > 100 µM | SN12C > 100 µM | SNB-19 > 100 µM | SNB-75 > 100 µM | SW-620 > 100 µM | TK-10 > 100 µM | U-251 > 100 µM | UACC-257 > 100 µM | UACC-62 > 100 µM | UO-31 > 100 µM
> 100 µM: HCT-15

COCCOCOC(C)(C)[C@H](CCO)O[Si](c1ccccc1)(c1ccccc1)C(C)(C)C
inactive: A498 16.7 µM | A549 6.32 µM | ACHN 5.68 µM | COLO 205 15.9 µM | DLD-1 9.64 µM | EKVX 13.5 µM | HCC 2998 4.68 µM | HCT-116 3.67 µM | HL-60 2.39 µM | HOP-18 17.5 µM | HOP-92 10.6 µM | HT-29 8.61 µM | IGROV-1 9.14 µM | KM-20L2 11.8 µM | KM12 11.5 µM | LOX IMVI 8.36 µM | LXFL 529 9.95 µM | M14 9.89 µM | M19-MEL 11.7 µM | MOLT-4 3.54 µM | Malme-3M 14.3 µM | NCI-H23 15.7 µM | NCI-H460 5.15 µM | NCI-H522 4.57 µM | OVCAR-3 10.2 µM | OVCAR-5 14.1 µM | OVCAR-8 10.4 µM | RPMI-8226 6.17 µM | RXF 393 5.3 µM | RXF 631 5.85 µM | SF-268 7.13 µM | SF-295 5.74 µM | SF-539 14.1 µM | SK-MEL-28 14.9 µM | SK-MEL-2 > 10 µM | SK-MEL-5 13.4 µM | SK-OV-3 12.5 µM | SN12C 3.34 µM | SNB-19 13.2 µM | SNB-75 8.11 µM | SNB-78 16.3 µM | SR 3.25 µM | SW-620 11.2 µM | TK-10 10.9 µM | U-251 11 µM | UACC-257 8.77 µM | UACC-62 12 µM | UO-31 13 µM | XF498 3.18 µM
4.68 µM: HCT-15

CCOC(=O)NC(=O)c1cn(-c2ccc(CCOC(=O)CCCCCCCCC(=O)OCCc3ccc(-n4cc(C(=O)NC(=O)OCC)c(=O)[nH]c4=O)cc3)cc2)c(=O)[nH]c1=O
inactive: 786-0 > 100 µM | A549 > 100 µM | ACHN > 100 µM | CCRF-CEM > 100 µM | COLO 205 > 100 µM | DLD-1 > 100 µM | DMS-114 > 100 µM | EKVX > 100 µM | HCC 2998 > 100 µM | HCT-116 > 100 µM | HL-60 > 100 µM | HOP-18 > 100 µM | HOP-62 > 100 µM | HOP-92 26 µM | HT-29 > 100 µM | IGROV-1 76.4 µM | K562 > 100 µM | KM-20L2 > 100 µM | KM12 > 100 µM | LOX IMVI > 100 µM | LXFL 529 > 100 µM | M14 > 100 µM | M19-MEL > 100 µM | MOLT-4 > 100 µM | Malme-3M > 100 µM | NCI-H226 > 100 µM | NCI-H23 > 100 µM | NCI-H460 > 100 µM | OVCAR-3 > 100 µM | OVCAR-4 > 100 µM | OVCAR-5 > 100 µM | OVCAR-8 > 100 µM | RPMI-8226 > 100 µM | RXF 393 > 100 µM | RXF 631 > 100 µM | SF-268 > 100 µM | SF-295 > 100 µM | SF-539 > 100 µM | SK-MEL-28 > 100 µM | SK-MEL-2 > 100 µM | SK-MEL-5 > 100 µM | SK-OV-3 > 100 µM | SN12C > 100 µM | SNB-19 59 µM | SNB-78 > 100 µM | SR > 100 µM | SW-620 > 100 µM | TK-10 42.8 µM | U-251 49.9 µM | UACC-257 > 100 µM | UACC-62 > 100 µM | UO-31 > 100 µM | XF498 > 100 µM
> 100 µM: HCT-15

O=C1C(c2ccc(Cl)cc2)=[N+]([O-])c2ccccc21
inactive: 786-0 16.9 µM | A498 24.7 µM | A549 17.5 µM | ACHN 15.2 µM | CCRF-CEM 4.36 µM | COLO 205 17.7 µM | DLD-1 13.8 µM | DMS-114 4.07 µM | EKVX 15.3 µM | HCC 2998 > 100 µM | HCT-116 14.4 µM | HL-60 3.3 µM | HOP-18 21.8 µM | HOP-62 29.4 µM | HT-29 19.8 µM | IGROV-1 18.1 µM | K562 13.4 µM | KM-20L2 25.4 µM | KM12 15.2 µM | LOX IMVI 14 µM | LXFL 529 5.36 µM | M14 14.2 µM | M19-MEL > 100 µM | MOLT-4 12.4 µM | Malme-3M 17.8 µM | NCI-H226 19.1 µM | NCI-H23 16.1 µM | NCI-H460 18.8 µM | NCI-H522 10 µM | OVCAR-3 13.6 µM | OVCAR-5 22.9 µM | OVCAR-8 10.7 µM | RPMI-8226 14.9 µM | RXF 393 11 µM | RXF 631 23.6 µM | SF-268 15.4 µM | SF-295 12.1 µM | SF-539 21 µM | SK-MEL-28 14.9 µM | SK-MEL-2 23.1 µM | SK-MEL-5 13.6 µM | SK-OV-3 > 100 µM | SN12C 18.1 µM | SNB-19 23.3 µM | SNB-75 21.4 µM | SR 20.2 µM | SW-620 39.7 µM | TK-10 16.3 µM | U-251 16.7 µM | UACC-257 16 µM | UACC-62 18.3 µM | UO-31 > 100 µM | XF498 20.4 µM
11.4 µM: HCT-15
